Laboratory results reported in patent publication US4059704A, “Tetrazole coumarin derivatives” (Beecham Group Limited, priority 1973, dated 1977).

What was measured:
[1] = anti-allergic activity (general statement, no test detailed); settings: in our hands
[2] = authors' conclusion in J.Chem.Soc. Perkin Trans I, 779, 1972; cited from earlier work
Rat PCA response = experiment: Rat Passive Cutaneous Anaphylaxis (PCA) test; assay type: in vivo, Wistar rats
Experimental: All of the coumarins prepared in the preceeding Examples were submitted for biological testing. The test system was the Rat Passive Cutaneous Anaphylaxis (PCA) test described below in (ii)
i. Serum containing heat labile homocytotropic antibody was raised in rats by a method similar to that used by Mota. (I. Mota Immunology 1964, 7,681).
Male Wistar rats of 250-300 g, were injected intraperitoneally with 0.5 of Bordatella pertussis vaccine (containing 4 × 10^10 dead organism per ml.) and subcutaneously with 0.5 ml of an emulsion of adjuvant. Rats were bled by cardiac puncture on day 18, the blood was pooled and separated and serum stored at -20° and thawed only once before use.
ii. The P.C.A. test was similar to that described by Ovary and Bier (A. Ovary and O. E. Bier, Proc.Soc.Exp. Biol.Med. 1952, 81, 584) and Goose and Blair (J. Goose and AMJ. N. Blair, Immunology 1969, 16, 769).
0.1 ml of each of six twofold serial dilutions of the serum in 0.9% saline were injected intradermally into separate sites on the shaved dorsal surface of 250-350 g. Wistar rats. 72 hours later the animals were challenged by i.v. injection of 0.3 ml of 1% ovalbumin mixed with 0.1 ml of a 5% solution of pontamine sky blue dye in isotonic saline buffered with pH. 7.2 Sorenson buffer (P.B.S.). The rats were killed after 20 minutes and the diameter of the blue wheals at the antibody injection sites were measured. The starting dilution of the serum was adjusted so that there was no response, after challenge, at the site of injection of the highest dilution and a maximum response at the lowest dilution. Typically, six twofold serial dilutions of the serum from 1/4 to 1/128 were used.
Compounds were tested for their ability to reduce the diameter of the wheals at the injection sites of dilutions of antibody which on all the controls have less than maximum response. Amounts of the compounds were administered to rats each amount to a test group of six animals at a specified time prior to intravenous challenge with ovalbumin. The diameters of the blue wheals which developed on the tests group of animals were compared with those on a control group of six animals treated in the same way as the test group, but which had not received the compound under test.
% Inhibition of P.C.A. = 100 (1 - a/b)
a = The mean of the sum of the diameters of the wheals produced in the test group of animals at those antibody sites where all the control group of animals gave less than maximum response.
b = The mean of the sum of diameters of the wheals produced in the control group of animals at those antibody sites where all the animals gave less than maximum response.
The preferred method of administration was a solution of the test compound dissolved in pH 7.2 buffer and neutralised with sodium bicarbonate.

[3] = 1 h, time 60 mins prior to challenge
[4] = 0.5 h, time 30 mins prior to challenge
[5] = 10 min, time 10 mins prior to challenge

Row | Compound | inhibition in vivo at 25 mg/kg (Rat PCA response; [3]) | inhibition in vivo at 100 mg/kg (Rat PCA response; [3]) | inhibition in vivo at 25 mg/kg (Rat PCA response; [4]) | inhibition in vivo at 100 mg/kg (Rat PCA response; [4]) | other results
1 | Cc1c(-c2nnn[nH]2)c(=O)oc2ccccc12 [Example 1, 4-Methyl-3-(tetrazol-5-yl) coumarin, reference compound] | 38% | 48% | – | – | antiallergic activity [1]: substantial antiallergic activity; anti-allergic activity [2]: no anti-allergic activity
2 | Cc1c(-c2nnn[nH]2)c(=O)oc2ccc(Br)cc12 [Example 2, 6-Bromo-4-methyl-3-(tetrazol-5-yl) coumarin] | 36% | 44% | – | – | –
3 | Cc1c(-c2nnn[nH]2)c(=O)oc2ccc(Cl)cc12 [Example 3, 6-Chloro-4-methyl-3-(tetrazol-5-yl) coumarin] | 28% | 35% | – | – | –
4 | Cc1cc2oc(=O)c(-c3nnn[nH]3)c(C)c2cc1C [Example 4, 3-(Tetrazol-5-yl)-4,6,7-trimethyl coumarin] | – | – | 47% | 70% | –
5 | Cc1ccc2oc(=O)c(-c3nnn[nH]3)c(C)c2c1 [Example 5, 4,6-Dimethyl-3-(tetrazol-5-yl) coumarin] | 32% | 19% | – | – | –
6 | Cc1ccc2c(C)c(-c3nnn[nH]3)c(=O)oc2c1 [Example 6, 4,7-Dimethyl-3-(tetrazol-5-yl) coumarin] | – | – | 42% | 45% | –
7 | Cc1c(-c2nnn[nH]2)c(=O)oc2c(Cl)cccc12 [Example 7, 8-Chloro-4-methyl-3-(tetrazol-5-yl) coumarin] | – | – | 19% | 26% | –
8 | Cc1c(-c2nnn[nH]2)c(=O)oc2c1ccc1ccccc12 [Example 8, 7,8-Benzo-4-methyl-3-(tetrazol-5-yl) coumarin] | 20% | 30% | – | – | –
9 | CCc1c(-c2nnn[nH]2)c(=O)oc2ccccc12 [Example 9, 4-Ethyl-3-(tetrazol-5-yl) coumarin] | – | – | 19% | 70% | –
10 | CCCc1c(-c2nnn[nH]2)c(=O)oc2ccccc12 [Example 10, 4-n-Propyl-3-(tetrazol-5-yl) coumarin] | – | – | -12% | 45% | –
11 | O=c1oc2ccccc2c(-c2ccccc2)c1-c1nnn[nH]1 [Example 11, 4-Phenyl-3-(tetrazol-5-yl) coumarin] | – | – | -10% | 14% | –
12 | CCc1cc2oc(=O)c(-c3nnn[nH]3)c(C)c2cc1CC [Example 12, 6,7-Diethyl-4-methyl-3(tetrazol-5-yl) coumarin] | 10% | 42% | – | – | inhibition in vivo at 25 mg/kg (Rat PCA response; [5]): -6%; inhibition in vivo at 100 mg/kg (Rat PCA response; [5]): -1%
